Patent US3950517A, “Insulin derivatives” (National Research Development Corporation, priority 1970, dated 1976)

Columns and labels:
Mouse = Mouse convulsion assay (British Pharmacopoeia, 1968) against neutral insulin standard; assay type: in vivo; conditions: Table 1; percentage basis relative to insulin
Source text: (§1) In most cases the new derivatives have an initial bloor sugar lowering effect which is virtually indistinguishable from insulin itself. In contrast the derivatives have less than about 50% of the immunoreactivity of the parent insulin as determined by radioimmunoassay. In many cases the reduction in immunoreactivity (reactivity towards specific insulin antibody) is as low as 30% or even 10% of that of the parent hormone. The figures are expressed on a percentage basis relative to insulin.
The insulin derivatives were separated from trace amounts of urea and salt by elution from a Sephadex G.10 column (2.5 × 60 cm.) equilibrated with 5% aqueous acid and the protein, after lyophilisation, was dried over phosphorous pentoxide at room temperature for 2 days. The derivatives were assayed against a neutral insulin solution (Nuso insulin batch A 354) as standard by the Mouse Convulsion method (British Pharmacopoeia, 1968). All injections were of solutions in acetate buffer, pH 8.0.

[1] = test system: specific insulin antibody; experiment: Radioimmunoassay of immunoreactivity (reactivity towards specific insulin antibody); assay type: binding; conditions: percentage basis relative to insulin; for Radioimmunoassay Immunoreactivity: Table 1; for Immunoreactivity: Table 2
Source text: as §1

blood sugar = experiment: Blood sugar lowering activity by intravenous injection into laboratory animals; assay type: in vivo; conditions: Table 2; percentage basis relative to insulin
Source text: as §1

| Substance | Mouse convulsion assay Mean potency (Mouse) [%] | Radioimmunoassay Immunoreactivity [1] [%] | Blood sugar lowering (blood sugar) [%] | Immunoreactivity [1] [%] |
| --- | --- | --- | --- | --- |
| Phe^B1 acetyl insulin | 100 | 30 |  |  |
| A1, B1, B29 -triacetyl-insulin | 96 | 10 |  |  |
| (Carbamyl-Phe)B1 -insulin |  |  | 100 | 23 |
| Gly^A1 -monosubstituted insulin (a) carbamyl: Insulin carbamylated at A1 glycine |  |  | 100 |  |
| Phe^B1 -monosubstituted insulins (b) Acetoacetyl (bovine): Bovine insulin acetoacetylated (diketen) at the B1 phenylalanine amino group | 109 | 8.6 |  |  |
| Phe^B1 Gly^A1 -diacetyl insulin | 90 | 25 |  |  |
| Lys^B29 -monosubstituted insulins (b) Thiazolidine (bovine): Bovine insulin acylated at B29 lysine with 2,2-dimethyl-3-formyl-L-thiazolidine-4-carboxylic acid | 101 | 84 |  |  |
| Lys^B29 acetyl insulin | 114 | 83 |  |  |
| Gly^A1 -monosubstituted insulin (b) methylthiocarbamyl: Insulin methylthiocarbamylated at A1 glycine |  |  | 100 | 92 |
| Phe^B1, Gly^A1, Lys^B29 -trisubstituted insulins (b) Acetoacetyl (bovine): Bovine insulin acetoacetylated at A1, B1 and B29 | 77 | 17 |  |  |
| Phe^B1, Gly^A1 -disubstituted insulins (b) Acetoacetyl (bovine): Bovine insulin acetoacetylated at B1 and A1 | 76 | 14 |  |  |
| Gly^A1 -monosubstituted insulins (b) Acetoacetyl (bovine): Bovine insulin acetoacetylated at the A1 glycine amino group | 88 | 87 |  |  |
| (Carbamyl-Gly)A1 -(Carbamyl-Phe)B1 -(Carbamyl-Lys)B29 -insulin |  |  | 100 | 9 |
| Phe^B1 -Gly^A1 -disubstituted insulins (b) methylthiocarbamyl: Insulin methylthiocarbamylated at A1 and B1 |  |  | 100 | 20 |
| Crystalline bovine insulin: Parent bovine insulin, reference set to 100 [reference compound] | 100 | 100 | 100 | 100 |
| Gly^A1 Lys^B29 -diacetyl insulin | 93 | 67 |  |  |
| Phe^B1 -monosubstituted insulins (c) Thiazolidine (bovine): Bovine insulin acylated at B1 phenylalanine with 2,2-dimethyl-3-formyl-L-thiazolidine-4-carboxylic acid | 103 | 27 |  |  |
| Gly^A1 -monosubstituted insulins (c) Thiazolidine (bovine): Bovine insulin acylated at A1 glycine with 2,2-dimethyl-3-formyl-L-thiazolidine-4-carboxylic acid | 57 | 81 |  |  |
| Gly^A1 -monosubstituted insulins (a) Acetyl (bovine): Bovine insulin acetylated at the A1 glycine amino group | 105 | 71 |  |  |
| (Carbamyl-Gly)A1 -(Carbamyl-Phe)B1 -insulin |  |  | 100 | 10 |
